Laboratory results: ChEMBL document CHEMBL1909046, “DrugMatrix in vitro pharmacology data”

Experiments:
[1] = target: T1, Alpha-1A adrenergic receptor (Rattus norvegicus, UniProt P43140); experiment: DRUGMATRIX: Alpha-1A adrenergic receptor radioligand binding (ligand: prazosin); assay type: cell membranes, Wistar, Submaxillary gland, Membrane; details: Not Active = under 50% inhibition at 10 µM
T1 sequence (P43140 whole entry): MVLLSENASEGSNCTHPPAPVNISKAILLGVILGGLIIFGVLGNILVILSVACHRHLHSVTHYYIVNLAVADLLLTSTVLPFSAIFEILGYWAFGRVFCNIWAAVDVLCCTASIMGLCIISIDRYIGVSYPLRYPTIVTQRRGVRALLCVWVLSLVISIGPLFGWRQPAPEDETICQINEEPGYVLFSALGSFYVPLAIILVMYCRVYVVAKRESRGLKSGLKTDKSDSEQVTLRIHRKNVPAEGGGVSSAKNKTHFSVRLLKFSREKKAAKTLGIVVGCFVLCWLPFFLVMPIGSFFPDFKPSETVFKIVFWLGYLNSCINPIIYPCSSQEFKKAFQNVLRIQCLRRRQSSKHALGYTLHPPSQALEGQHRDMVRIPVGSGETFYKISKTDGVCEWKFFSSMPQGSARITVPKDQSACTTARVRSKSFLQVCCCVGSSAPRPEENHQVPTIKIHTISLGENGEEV

B2 bradykinin receptor = target: T2, B2 bradykinin receptor (Homo sapiens, UniProt P30411); assay type: cell membranes, Membrane; details: chem-1; note: in other assays of this panel Not Active means under 50% inhibition at 10 µM
T2 sequence (P30411 whole entry): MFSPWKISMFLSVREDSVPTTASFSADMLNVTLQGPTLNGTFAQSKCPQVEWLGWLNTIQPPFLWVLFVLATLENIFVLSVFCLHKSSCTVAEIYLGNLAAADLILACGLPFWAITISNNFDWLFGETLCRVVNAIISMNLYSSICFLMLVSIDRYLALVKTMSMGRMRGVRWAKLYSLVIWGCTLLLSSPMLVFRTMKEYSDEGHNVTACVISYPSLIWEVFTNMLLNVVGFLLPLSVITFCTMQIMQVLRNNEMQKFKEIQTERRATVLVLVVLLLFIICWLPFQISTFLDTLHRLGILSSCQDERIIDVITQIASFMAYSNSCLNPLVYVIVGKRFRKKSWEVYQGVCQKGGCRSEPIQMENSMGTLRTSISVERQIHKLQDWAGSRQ

[2] = target: 5-hydroxytryptamine receptor 2B (Homo sapiens, UniProt P41595); assay type: cell membranes, CHO-K1, Membrane; details: cho-k1; note: in other assays of this panel Not Active means under 50% inhibition at 10 µM
5-hydroxytryptamine receptor 2B, sequence (P41595 whole entry): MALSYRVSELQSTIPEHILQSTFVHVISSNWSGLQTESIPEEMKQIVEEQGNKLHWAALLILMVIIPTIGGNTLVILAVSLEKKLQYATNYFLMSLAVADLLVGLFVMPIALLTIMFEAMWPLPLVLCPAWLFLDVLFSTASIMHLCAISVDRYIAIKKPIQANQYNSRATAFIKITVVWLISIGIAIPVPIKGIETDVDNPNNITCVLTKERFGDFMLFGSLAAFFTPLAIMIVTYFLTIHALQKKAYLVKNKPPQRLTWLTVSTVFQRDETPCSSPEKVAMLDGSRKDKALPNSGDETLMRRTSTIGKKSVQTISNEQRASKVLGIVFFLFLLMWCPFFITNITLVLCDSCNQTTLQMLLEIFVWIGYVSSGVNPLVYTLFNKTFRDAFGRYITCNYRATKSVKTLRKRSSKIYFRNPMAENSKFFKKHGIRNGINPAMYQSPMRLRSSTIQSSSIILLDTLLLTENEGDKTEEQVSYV

[3] = DRUGMATRIX: Serotonin (5-Hydroxytryptamine) 5-HT3 radioligand binding (ligand: [3H] GR-65630); assay type: cell membranes, Membrane; details: hek293; Not Active = under 50% inhibition at 10 µM
[4] = target: Prostaglandin G/H synthase 1 (Homo sapiens, UniProt P23219); experiment: biochemical; assay type: tissue-based, Platelet; details: platelet;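 note: inhibition of COX-1 enzyme activity, with arachidonic acid supplied as substrate; in other assays of this panel Not Active means under 50% inhibition at 10 µM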
Prostaglandin G/H synthase 1, sequence (P23219 whole entry): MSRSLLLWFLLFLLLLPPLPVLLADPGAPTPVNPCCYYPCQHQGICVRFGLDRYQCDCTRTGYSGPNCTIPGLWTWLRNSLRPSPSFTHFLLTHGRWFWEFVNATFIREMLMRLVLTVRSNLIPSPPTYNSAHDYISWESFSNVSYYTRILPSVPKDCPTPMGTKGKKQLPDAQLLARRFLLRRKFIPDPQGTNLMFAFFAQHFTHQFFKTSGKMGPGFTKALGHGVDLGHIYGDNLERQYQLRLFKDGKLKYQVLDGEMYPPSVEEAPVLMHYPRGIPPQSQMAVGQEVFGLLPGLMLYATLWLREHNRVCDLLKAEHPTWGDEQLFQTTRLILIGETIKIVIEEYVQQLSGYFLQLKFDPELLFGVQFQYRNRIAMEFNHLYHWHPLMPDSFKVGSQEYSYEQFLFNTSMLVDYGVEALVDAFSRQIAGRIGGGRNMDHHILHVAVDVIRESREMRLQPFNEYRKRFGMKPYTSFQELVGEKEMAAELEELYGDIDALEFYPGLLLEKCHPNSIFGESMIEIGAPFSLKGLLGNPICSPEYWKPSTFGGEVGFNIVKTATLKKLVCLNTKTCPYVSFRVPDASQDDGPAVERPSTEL

[5] = DRUGMATRIX: GABAA, Chloride Channel, TBOB radioligand binding (ligand: [3H] TBOB); assay type: cell membranes, Rattus norvegicus, Wistar, Cerebral cortex, Membrane; details: Not Active = under 50% inhibition at 10 µM
[6] = target: T3, Amine oxidase [flavin-containing] A (Homo sapiens, UniProt P21397); experiment: DRUGMATRIX: Monoamine Oxidase MAO-A enzyme inhibition (substrate: Kynuramine); design: species or system BTI-TN-5B1-4; details: bti-tn-5b1-4; Not Active = under 50% inhibition at 10 µM
T3 sequence (P21397 whole entry): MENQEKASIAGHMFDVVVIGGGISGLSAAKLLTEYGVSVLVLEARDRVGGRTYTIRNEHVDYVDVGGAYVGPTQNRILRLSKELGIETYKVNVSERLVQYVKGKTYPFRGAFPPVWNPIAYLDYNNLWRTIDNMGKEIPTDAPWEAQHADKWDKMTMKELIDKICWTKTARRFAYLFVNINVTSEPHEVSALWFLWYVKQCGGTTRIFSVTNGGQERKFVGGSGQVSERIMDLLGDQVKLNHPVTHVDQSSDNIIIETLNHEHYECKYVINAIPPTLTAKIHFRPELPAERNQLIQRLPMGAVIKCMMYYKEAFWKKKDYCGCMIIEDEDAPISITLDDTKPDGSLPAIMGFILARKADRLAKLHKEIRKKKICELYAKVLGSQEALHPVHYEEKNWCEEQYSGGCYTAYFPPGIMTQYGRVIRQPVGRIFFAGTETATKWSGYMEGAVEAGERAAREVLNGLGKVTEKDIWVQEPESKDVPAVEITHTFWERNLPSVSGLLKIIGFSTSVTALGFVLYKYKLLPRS

[7] = target: T4, Neuropeptide Y receptor type 2 (Homo sapiens, UniProt P49146); assay type: cell membranes, Membrane; details: kan-ts; note: in other assays of this panel Not Active means under 50% inhibition at 10 µM
T4 sequence (P49146 whole entry): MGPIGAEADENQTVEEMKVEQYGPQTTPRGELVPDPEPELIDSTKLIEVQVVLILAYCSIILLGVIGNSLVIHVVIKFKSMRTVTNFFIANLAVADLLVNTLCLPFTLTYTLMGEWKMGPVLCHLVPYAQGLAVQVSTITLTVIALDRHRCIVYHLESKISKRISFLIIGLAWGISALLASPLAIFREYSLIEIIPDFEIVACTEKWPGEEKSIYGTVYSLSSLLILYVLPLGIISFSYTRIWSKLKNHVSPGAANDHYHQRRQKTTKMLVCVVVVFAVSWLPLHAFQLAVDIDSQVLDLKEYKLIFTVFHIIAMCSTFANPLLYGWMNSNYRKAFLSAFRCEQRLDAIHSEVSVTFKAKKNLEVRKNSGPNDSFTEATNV

[8] = DRUGMATRIX: Phorbol Ester radioligand binding (ligand: [3H] PDBu); assay type: cell membranes, Mus musculus, ICR, Brain, Membrane; details: Not Active = under 50% inhibition at 10 µM
Caspase-1 = target: T5, Caspase-1 (Homo sapiens, UniProt P29466); design: species or system Escherichia coli
T5 sequence (P29466 whole entry): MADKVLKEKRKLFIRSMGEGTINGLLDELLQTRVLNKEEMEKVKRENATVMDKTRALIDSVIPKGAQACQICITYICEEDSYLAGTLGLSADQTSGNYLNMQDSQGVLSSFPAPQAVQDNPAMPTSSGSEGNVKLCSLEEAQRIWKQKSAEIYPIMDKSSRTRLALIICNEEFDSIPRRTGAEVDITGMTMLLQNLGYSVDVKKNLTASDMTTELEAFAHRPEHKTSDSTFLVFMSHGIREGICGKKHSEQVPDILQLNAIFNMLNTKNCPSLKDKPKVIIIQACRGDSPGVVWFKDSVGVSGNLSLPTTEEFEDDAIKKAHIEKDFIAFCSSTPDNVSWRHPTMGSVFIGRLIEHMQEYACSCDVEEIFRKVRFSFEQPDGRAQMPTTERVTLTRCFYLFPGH

[9] = target: Mitogen-activated protein kinase 14 (Homo sapiens, UniProt Q16539); design: species or system Escherichia coli
Mitogen-activated protein kinase 14, sequence (Q16539 whole entry): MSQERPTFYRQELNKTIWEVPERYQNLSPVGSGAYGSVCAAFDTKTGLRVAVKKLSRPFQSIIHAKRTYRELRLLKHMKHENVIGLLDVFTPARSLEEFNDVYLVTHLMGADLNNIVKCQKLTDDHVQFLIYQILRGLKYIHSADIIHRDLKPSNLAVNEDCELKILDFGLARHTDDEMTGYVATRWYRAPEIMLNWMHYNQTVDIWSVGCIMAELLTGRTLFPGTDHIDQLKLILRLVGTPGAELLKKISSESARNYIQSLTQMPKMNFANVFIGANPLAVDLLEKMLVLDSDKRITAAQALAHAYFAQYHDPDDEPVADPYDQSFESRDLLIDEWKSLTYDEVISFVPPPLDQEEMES

[10] = target: Tyrosine-protein kinase Lck (Homo sapiens, UniProt P06239); experiment: DRUGMATRIX: Protein Tyrosine Kinase, LCK enzyme inhibition (substrate: Poly(Glu:Tyr)); assay type: cell-based, Insect cells; details: insect cells; Not Active = under 50% inhibition at 10 µM
Tyrosine-protein kinase Lck, sequence (P06239 whole entry): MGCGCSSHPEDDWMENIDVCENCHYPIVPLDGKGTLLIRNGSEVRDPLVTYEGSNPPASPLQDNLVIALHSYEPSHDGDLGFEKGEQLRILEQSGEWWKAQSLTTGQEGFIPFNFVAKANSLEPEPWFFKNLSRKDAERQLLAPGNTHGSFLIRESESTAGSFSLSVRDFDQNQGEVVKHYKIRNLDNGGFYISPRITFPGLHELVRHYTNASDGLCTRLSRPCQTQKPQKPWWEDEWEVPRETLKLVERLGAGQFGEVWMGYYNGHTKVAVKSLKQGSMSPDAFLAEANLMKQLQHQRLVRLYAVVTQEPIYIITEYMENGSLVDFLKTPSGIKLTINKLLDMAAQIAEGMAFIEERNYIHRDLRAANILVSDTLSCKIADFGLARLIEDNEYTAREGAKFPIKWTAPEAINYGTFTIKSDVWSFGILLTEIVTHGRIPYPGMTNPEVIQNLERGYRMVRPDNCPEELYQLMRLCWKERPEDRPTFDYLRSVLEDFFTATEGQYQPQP

Cytochrome P450 2C19 = Cytochrome P450 2C19 (Homo sapiens, UniProt P33261); details: bti-tn-5b1-4; note: in other assays of this panel Not Active means under 50% inhibition at 10 µM
Cytochrome P450 2C19, sequence (P33261 whole entry): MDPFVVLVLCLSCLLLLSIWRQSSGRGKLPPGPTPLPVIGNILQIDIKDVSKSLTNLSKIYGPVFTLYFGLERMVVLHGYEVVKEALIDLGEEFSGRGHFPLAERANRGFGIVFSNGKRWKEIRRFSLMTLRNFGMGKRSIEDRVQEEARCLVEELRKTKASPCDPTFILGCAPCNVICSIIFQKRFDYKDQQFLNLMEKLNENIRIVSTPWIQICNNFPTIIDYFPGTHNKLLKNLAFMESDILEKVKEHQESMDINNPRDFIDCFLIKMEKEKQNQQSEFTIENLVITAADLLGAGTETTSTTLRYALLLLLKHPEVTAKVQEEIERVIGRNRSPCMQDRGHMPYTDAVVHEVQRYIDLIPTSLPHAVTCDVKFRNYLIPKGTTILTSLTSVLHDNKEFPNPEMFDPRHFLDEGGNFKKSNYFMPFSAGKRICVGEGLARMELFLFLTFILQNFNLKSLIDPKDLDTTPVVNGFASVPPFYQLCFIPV

CN(C)[C@@H]1C(O)=C(C(N)=O)C(=O)[C@@]2(O)C(O)=C3C(=O)c4c(O)cccc4[C@@](C)(O)[C@H]3[C@H](O)[C@@H]12 [OXYTETRACYCLINE]
Not Active: IC50 [1] | IC50 (B2 bradykinin receptor) | IC50 [2] | IC50 [3] | Ki [3] | IC50 [4] | IC50 [5] | Ki [5] | IC50 [6] | IC50 [7] | IC50 [8] | Ki [8] | IC50 (Caspase-1) | IC50 [9] | IC50 [10] | IC50 (Cytochrome P450 2C19) | Ki (Cytochrome P450 2C19)

Fc1ccc([C@@H]2CCNC[C@H]2COc2ccc3c(c2)OCO3)cc1 [PAROXETINE]
Not Active: IC50 [1] | IC50 (B2 bradykinin receptor) | IC50 [2] | IC50 [3] | Ki [3] | IC50 [4] | IC50 [5] | Ki [5] | IC50 [6] | IC50 [7] | IC50 [8] | Ki [8] | IC50 (Caspase-1) | IC50 [9] | IC50 [10] | IC50 (Cytochrome P450 2C19) | Ki (Cytochrome P450 2C19)

CC(C)(S)[C@@H](N)C(=O)O [PENICILLAMINE]
Not Active: IC50 [1] | IC50 (B2 bradykinin receptor) | IC50 [2] | IC50 [3] | Ki [3] | IC50 [4] | IC50 [5] | Ki [5] | IC50 [6] | IC50 [7] | IC50 [8] | Ki [8] | IC50 (Caspase-1) | IC50 [9] | IC50 [10] | IC50 (Cytochrome P450 2C19) | Ki (Cytochrome P450 2C19)

CC(=O)CCCCn1c(=O)c2c(ncn2C)n(C)c1=O [PENTOXIFYLLINE]
Not Active: IC50 [1] | IC50 (B2 bradykinin receptor) | IC50 [2] | IC50 [3] | Ki [3] | IC50 [4] | IC50 [5] | Ki [5] | IC50 [6] | IC50 [7] | IC50 [8] | Ki [8] | IC50 (Caspase-1) | IC50 [9] | IC50 [10] | IC50 (Cytochrome P450 2C19) | Ki (Cytochrome P450 2C19)

O=C1NC(=O)C(c2ccccc2)(c2ccccc2)N1 [PHENYTOIN]
Not Active: IC50 [1] | IC50 (B2 bradykinin receptor) | IC50 [2] | IC50 [3] | Ki [3] | IC50 [4] | IC50 [5] | Ki [5] | IC50 [6] | IC50 [7] | IC50 [8] | Ki [8] | IC50 (Caspase-1) | IC50 [9] | IC50 [10] | IC50 (Cytochrome P450 2C19) | Ki (Cytochrome P450 2C19)

CNC(=O)Oc1ccc2c(c1)[C@]1(C)CCN(C)[C@@H]1N2C [PHYSOSTIGMINE]
Not Active: IC50 [1] | IC50 (B2 bradykinin receptor) | IC50 [2] | IC50 [3] | Ki [3] | IC50 [4] | IC50 [5] | Ki [5] | IC50 [6] | IC50 [7] | IC50 [8] | Ki [8] | IC50 (Caspase-1) | IC50 [9] | IC50 [10] | IC50 (Cytochrome P450 2C19) | Ki (Cytochrome P450 2C19)

CCC1(c2ccccc2)C(=O)NCNC1=O [PRIMIDONE]
Not Active: IC50 [1] | IC50 (B2 bradykinin receptor) | IC50 [2] | IC50 [3] | Ki [3] | IC50 [4] | IC50 [5] | Ki [5] | IC50 [6] | IC50 [7] | IC50 [8] | Ki [8] | IC50 (Caspase-1) | IC50 [9] | IC50 [10] | IC50 (Cytochrome P450 2C19) | Ki (Cytochrome P450 2C19)

CCCc1cc(=O)[nH]c(=S)[nH]1 [PROPYLTHIOURACIL]
Not Active: IC50 [1] | IC50 (B2 bradykinin receptor) | IC50 [2] | IC50 [3] | Ki [3] | IC50 [4] | IC50 [5] | Ki [5] | IC50 [6] | IC50 [7] | IC50 [8] | Ki [8] | IC50 (Caspase-1) | IC50 [9] | IC50 [10] | IC50 (Cytochrome P450 2C19) | Ki (Cytochrome P450 2C19)
